Test results from US11672786B2, “Methods of treating diseases associated with repeat instability” (The Hospital for Sick Children, priority 2016, dated 2023).

Experiments:
[1] = system: long (CTG)20 slip-outs from (CAG)30●(CTG)50; assay: band-shift NA-DNA binding, long (CTG)20 slip-out; parameters: species or system human; conditions: NA 0.15-50 μM, 4% polyacrylamide gel
Excerpt: FIG. 2 are the results of experiments showing that NA binds to long CAG slip-outs. […] The (CAG)n DNA sequence (left) can fold into an hairpin structure involving mismatched A-A pair flanking C-G base pairs (middle). NA molecules can intercalate into the DNA helix, with the 2-amino-1,8-naphthyridine moiety (in red) hydrogen bonding to guanine and 8-azaquinolone moiety (in blue) hydrogen bonding to adenine. […] Long slip-outs extruded as a single slip-out from a fully base-paired backbone of (CTG)n●(CAG)n, as described (Pearson et al., 2002, Nuc. Acids Res., 30:4534-47). DNAs were mixed with increasing concentrations of NA (0.15 μM, 0.75 μM, 7.5 μM and 50 μM) and resolved on 4% polyacrylamide gels. All lanes are from the same gel, and they were separated for clarity. NA-DNA complexes are shown by brackets, free DNA is indicated by arrowheads. […] The relative migration was measured for the linear and the three slip-outs substrates as the ratio of the migration distance of each NA-DNA complex to the migration distance of the free DNA. The migration distance was measured from the well to a consistent center point of each band. […]

single CAG slip-out = assay: in vitro repair assay by HeLa cell extracts, single repeat slip-out; assay type: biochemical, human
Excerpt: Panel A of […] is a schematic of the in vitro repair assay. Starting DNAs and repair products released the repeat-containing fragment, which is resolved on PAGE and assessed on a molar level by Southern blotting and densitometry. Repair of different DNA substrates containing a long (CAG)20 slip-out (Panel B of FIG. 3) long (CTG)20 slip-out (Panel C of FIG. 3), a single CAG slip-out (Panel D of FIG. 3) or a single G-T mismatch (Panel E of FIG. 3), in the absence or in the presence of NA. Slipped-DNA substrates were prepared from hybrids of (CAG)50●(CTG)30, (CAG)30●(CTG)50 or of (CAG)50●(CTG)49. Repair of the G-T mismatch reconstitutes a HindIII restriction site, as shown schematically. Graphs show percentage repair efficiencies to repaired product relative to all repeat-containing fragments in the lane, values are normalized to the NA-free efficiency. […]
To determine how the binding of NA to slipped DNA structures affects repair, a series of circular slipped heteroduplex substrates was made with an excess of repeats with a nick located either 5′ or 3′ of the slip-out (FIG. 3). […] All these substrates were processed in […] by HeLa extracts and then were assessed for repair. Repair products were analyzed by Southern blotting, probed for the repeat-containing fragment, and compared with starting material, which permitted quantitative assessment of repair efficiency at a molar level. […]

[2] = system: plasmid harboring (CAG)79●(CTG)79 repeats, R-loops; assay: in vitro transcription, R-loop formation, RNase A/H processing and R-loop stability; assay type: biochemical
Method: Reaction products were then treated with RNase A (labeled “A”), to cleave all single-stranded RNAs, and resolved on 1% agarose gel. Control treatment with RNaseH (labeled “H”), eliminating RNA:DNA hybrids, was performed to reveal the RNA-free supercoiled DNAs. […] Reaction products then were resolved on 1% agarose gel. […] Double-R-loops were then treated with RNaseA or H (labeled “A” or “H”) and incubated with NA (50 μM). Reaction products were then resolved on 1% agarose gel. […] The position of supercoiled plasmid in dimer or monomer form is indicated by “SC”. The top “SC” represents linked dimers and the bottom “SC” represents monomers. In Panels C, D, and E, NA was either included in the transcription reaction (Panel C), only in the RNAse A/H reaction, only following the RNAse A/H clean-up.
Transcription reactions were performed as previously described (Reddy et al., 2014, Nuc. Acids Res., 42:10473-87). Briefly, 500 ng of template DNA in 1× transcription buffer (Roche) and 1× bovine serum albumin (NEB) were mixed for 1 h with 20 U of the appropriate RNA polymerase: T7, T3 or T7+T3 (Roche), with or without NA 120 μM. Samples were purified and then treated with either 1 g of RNase A (Roche) alone or with 1 g of RNase A (Roche) and 1 U of E. coli RNase H (Roche), at room temperature for 30 min, in the presence or in the absence of NA (120 μM). All in vitro transcription reaction products were analyzed on 1% agarose gels run in 1×TBE buffer at 80 V for 3 h. Gels were subsequently stained with ethidium bromide (0.5 mg/ml) to allow visualization of total nucleic acid under ultraviolet (UV) light.

With naphthyridine-azaquinolone the “NA binding (band-shift)” value [1] was “not bound”, the “effect on repair of a single repeat CAG or CTG slip-out” value (single CAG slip-out) was “unaffected” and the “effect on biophysical stability of R-loops” value ([2]; NA 50 μM or 500 μM) was “did not affect the biophysical stability of R-loops”. For the same substance, the “effect on R-loop formation” value ([2]; NA 120 μM during transcription) was “did not affect R-loop formation” and the “effect on transcription in vitro” value ([2]; T3 or T7 RNA polymerases) was “nor did it affect transcription in vitro”.
